Assay results taken from patent US10925876B2, “Methods for using triazolo-pyrazinyl soluble guanylate cyclase activators in fibrotic disorders” (Merck Sharp & Dohme Corp., priority 2016, dated 2021).

molecular target: T1, sGC α1/β1 heterodimer (Homo sapiens, UniProt Q02108+Q02153); assay: Cell-Based sGC Functional Assay (CASA Assay), cGMP generation in CHO-K1/sGC cells;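 further: reference Compound A is a published heme-dependent sGC activator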; conditions: maximum cGMP production of Compound A set to 100% activation, read-out: % Act. (percent activation relative to Compound A)
T1 construct: expressed in transfected cells
T1 sequence (Q02108 1-690): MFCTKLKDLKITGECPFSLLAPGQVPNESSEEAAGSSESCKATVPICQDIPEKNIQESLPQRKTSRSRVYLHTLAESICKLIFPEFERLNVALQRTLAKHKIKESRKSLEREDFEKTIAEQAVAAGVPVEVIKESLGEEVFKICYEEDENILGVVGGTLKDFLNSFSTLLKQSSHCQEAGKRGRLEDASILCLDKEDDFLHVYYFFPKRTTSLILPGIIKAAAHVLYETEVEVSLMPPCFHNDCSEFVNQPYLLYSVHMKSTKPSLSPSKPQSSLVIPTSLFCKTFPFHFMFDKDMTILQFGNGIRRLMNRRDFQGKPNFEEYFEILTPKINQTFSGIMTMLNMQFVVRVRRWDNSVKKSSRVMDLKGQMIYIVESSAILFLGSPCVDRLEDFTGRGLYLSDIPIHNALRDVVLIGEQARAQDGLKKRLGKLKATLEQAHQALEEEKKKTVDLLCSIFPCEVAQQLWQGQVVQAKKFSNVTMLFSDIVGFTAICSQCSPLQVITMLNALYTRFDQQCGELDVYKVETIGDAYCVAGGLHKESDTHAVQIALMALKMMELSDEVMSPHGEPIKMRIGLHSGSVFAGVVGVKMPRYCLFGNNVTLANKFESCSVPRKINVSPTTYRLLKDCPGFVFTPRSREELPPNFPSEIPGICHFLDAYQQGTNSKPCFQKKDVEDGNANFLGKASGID
T1 sequence (Q02153 1-619): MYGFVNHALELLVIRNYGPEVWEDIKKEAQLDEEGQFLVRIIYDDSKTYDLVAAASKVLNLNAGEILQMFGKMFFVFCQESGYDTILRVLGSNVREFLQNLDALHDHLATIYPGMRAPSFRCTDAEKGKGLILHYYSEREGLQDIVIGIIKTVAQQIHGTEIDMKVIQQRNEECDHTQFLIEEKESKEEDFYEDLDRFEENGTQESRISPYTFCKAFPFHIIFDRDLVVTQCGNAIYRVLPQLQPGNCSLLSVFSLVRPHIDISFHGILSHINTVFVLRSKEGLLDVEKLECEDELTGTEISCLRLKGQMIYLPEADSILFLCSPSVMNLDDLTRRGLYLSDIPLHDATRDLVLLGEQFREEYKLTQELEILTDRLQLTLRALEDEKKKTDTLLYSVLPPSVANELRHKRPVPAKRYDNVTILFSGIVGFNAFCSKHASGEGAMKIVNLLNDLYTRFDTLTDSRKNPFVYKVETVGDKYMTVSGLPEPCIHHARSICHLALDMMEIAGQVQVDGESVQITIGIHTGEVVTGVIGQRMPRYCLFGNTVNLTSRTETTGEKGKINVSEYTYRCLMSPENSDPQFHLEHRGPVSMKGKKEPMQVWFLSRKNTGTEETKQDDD
In short: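 CHO-K1 cells stably expressing human sGC α1/β1, 4×10^5/mL in EBSS with 5 mM MgCl2, 10 mM HEPES, 0.05% BSA, 0.5 mM IBMX, 2.5% DMSO; compounds 1 h at 37 °C ± 1 μM DETA-NO. cGMP by HTRF, expressed as % of reference Compound A maximum; IP and max fold induction from 4P fit.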

Emax [%] | SMILES
125 | Nc1nc(-c2cn3ncnc3c(CCC(F)(F)F)n2)nc2c1C(c1ccc(Cl)cn1)(C1CC1)C(=O)N2 (stereo not drawn) [Example 82A, 4-amino-5-(5-chloropyridin-2-yl)-5-cyclopropyl-2-(8-(3,3,3-trifluoropropyl)-[1,2,4]triazolo[1,5-a]pyrazin-6-yl)-5H-pyrrolo[2,3-d]pyrimidin-6(7H)-one]
100 | Nc1nc(-c2cn3ncnc3c(CCC(F)(F)F)n2)nc2c1C(c1ccc(F)c(F)c1)(C1CC1)C(=O)N2 (stereo not drawn) [Example 83A, 4-amino-5-cyclopropyl-5-(3,4-difluorophenyl)-2-(8-(3,3,3-trifluoropropyl)-[1,2,4]triazolo[1,5-a]pyrazin-6-yl)-5H-pyrrolo[2,3-d]pyrimidin-6(7H)-one]
101 | CC1(c2ccc(F)c(F)c2)C(=O)Nc2nc(-c3cn4ncnc4c(CCC(F)(F)F)n3)nc(N)c21 (stereo not drawn) [Example 84B, 4-amino-5-(3,4-difluorophenyl)-5-methyl-2-(8-(3,3,3-trifluoropropyl)-[1,2,4]triazolo[1,5-a]pyrazin-6-yl)-5H-pyrrolo[2,3-d]pyrimidin-6(7H)-one]
126 | COc1cccc(Cc2nc(-c3nc(N)c4c(n3)NC(=O)[C@@]4(C)c3ccc(F)cc3)cn3ncnc23)c1 [Example 86B, (S)-4-amino-5-(4-fluorophenyl)-2-(8-(3-methoxybenzyl)-[1,2,4]triazolo[1,5-a]pyrazin-6-yl)-5-methyl-5H-pyrrolo[2,3-d]pyrimidin-6(7H)-one]
138 | Cc1nc2c(Cc3ccc(F)cc3)nc(-c3nc(N)c4c(n3)NC(=O)[C@@]4(C)c3ccc(F)cc3)cn2n1 [Example 87B, (S)-4-amino-2-(8-(4-fluorobenzyl)-2-methyl-[1,2,4]triazolo[1,5-a]pyrazin-6-yl)-5-(4-fluorophenyl)-5-methyl-5H-pyrrolo[2,3-d]pyrimidin-6(7H)-one]
109 | Cc1nc2c(CCC(F)(F)C(F)(F)F)nc(-c3nc(N)c4c(n3)NC(=O)C4(C)c3ccc(F)cn3)cn2n1 (stereo not drawn) [Example 89B, 4-amino-5-(5-fluoropyridin-2-yl)-5-methyl-2-(2-methyl-8-(3,3,4,4,4-pentafluorobutyl)-[1,2,4]triazolo[1,5-a]pyrazin-6-yl)-5H-pyrrolo[2,3-d]pyrimidin-6(7H)-one]
135 | Cc1nc2c(CCC(F)(F)C(F)(F)F)nc(-c3nc(N)c4c(n3)NC(=O)C4(C)c3ccc(Cl)c(F)c3)cn2n1 (stereo not drawn) [Example 90B, 4-amino-5-(4-chloro-3-fluorophenyl)-5-methyl-2-(2-methyl-8-(3,3,4,4,4-pentafluorobutyl)-[1,2,4]triazolo[1,5-a]pyrazin-6-yl)-5H-pyrrolo[2,3-d]pyrimidin-6(7H)-one]
105 | CCCc1nc(-c2nc(N)c3c(n2)NC(=O)[C@@]3(C)c2ccc(F)cc2)cn2nc(C)nc12 [Example 91A, (S)-4-amino-5-(4-fluorophenyl)-5-methyl-2-(2-methyl-8-propyl-[1,2,4]triazolo[1,5-a]pyrazin-6-yl)-5,7-dihydro-6H-pyrrolo[2,3-d]pyrimidin-6-one]
167 | CCCc1nc(-c2nc(N)c3c(n2)NC(=O)C3(C)c2ccc(F)cn2)cn2nc(C)nc12 (stereo not drawn) [Example 92B, 4-amino-5-(5-fluoropyridin-2-yl)-5-methyl-2-(2-methyl-8-propyl-[1,2,4]triazolo[1,5-a]pyrazin-6-yl)-5H-pyrrolo[2,3-d]pyrimidin-6(7H)-one]
159 | CCCc1nc(-c2nc(N)c3c(n2)NC(=O)C3(C)c2ccc(Cl)cc2)cn2nc(C)nc12 (stereo not drawn) [Example 93A, 4-amino-5-(4-chlorophenyl)-5-methyl-2-(2-methyl-8-propyl-[1,2,4]triazolo[1,5-a]pyrazin-6-yl)-5H-pyrrolo[2,3-d]pyrimidin-6(7H)-one]
108 | Nc1nc(-c2cn3ncnc3c(CCC(F)(F)C(F)(F)F)n2)nc2c1C(c1cn(C3CC3)nn1)(C1CC1)C(=O)N2 (stereo not drawn) [Example 96B, 4-amino-5-cyclopropyl-5-(1-cyclopropyl-1H-1,2,3-triazol-4-yl)-2-(8-(3,3,4,4,4-pentafluorobutyl)-[1,2,4]triazolo[1,5-a]pyrazin-6-yl)-5H-pyrrolo[2,3-d]pyrimidin-6(7H)-one]
113 | CC1(c2nnc(C3CC3)o2)C(=O)Nc2nc(-c3cn4ncnc4c(CCCC(F)(F)F)n3)nc(N)c21 (stereo not drawn) [Example 99A, 4-amino-5-(5-cyclopropyl-1,3,4-oxadiazol-2-yl)-5-methyl-2-(8-(4,4,4-trifluorobutyl)-[1,2,4]triazolo[1,5-a]pyrazin-6-yl)-5H-pyrrolo[2,3-d]pyrimidin-6(7H)-one]
184 | CC1(c2nnc(C(F)F)o2)C(=O)Nc2nc(-c3cn4ncnc4c(CCCC(F)(F)F)n3)nc(N)c21 (stereo not drawn) [Example 100A, 4-amino-5-(5-(difluoromethyl)-1,3,4-oxadiazol-2-yl)-5-methyl-2-(8-(4,4,4-trifluorobutyl)-[1,2,4]triazolo[1,5-a]pyrazin-6-yl)-5H-pyrrolo[2,3-d]pyrimidin-6(7H)-one]
154 | CC1(c2nnc(C(F)(F)F)o2)C(=O)Nc2nc(-c3cn4ncnc4c(CCCC(F)(F)F)n3)nc(N)c21 (stereo not drawn) [Example 101A, 4-amino-5-methyl-2-(8-(4,4,4-trifluorobutyl)-[1,2,4]triazolo[1,5-a]pyrazin-6-yl)-5-(5-(trifluoromethyl)-1,3,4-oxadiazol-2-yl)-5H-pyrrolo[2,3-d]pyrimidin-6(7H)-one]
132 | CCCCc1nc(-c2nc(N)c3c(n2)NC(=O)C3(C)c2nnc(C(F)(F)F)o2)cn2ncnc12 (stereo not drawn) [Example 102A, 4-amino-2-(8-butyl-[1,2,4]triazolo[1,5-a]pyrazin-6-yl)-5-methyl-5-(5-(trifluoromethyl)-1,3,4-oxadiazol-2-yl)-5H-pyrrolo[2,3-d]pyrimidin-6(7H)-one]
107 | Nc1nc(-c2cn3ncnc3c(CCCC(F)(F)F)n2)nc2c1C(c1nnc(C3(F)CC3)o1)(C1CC1)C(=O)N2 (stereo not drawn) [Example 108A, 4-amino-5-cyclopropyl-5-(5-(1-fluorocyclopropyl)-1,3,4-oxadiazol-2-yl)-2-(8-(4,4,4-trifluorobutyl)-[1,2,4]triazolo[1,5-a]pyrazin-6-yl)-5H-pyrrolo[2,3-d]pyrimidin-6(7H)-one]
92 | CC1(c2nnc(C3(F)CC3)o2)C(=O)Nc2nc(-c3cn4ncnc4c(CCCC(F)(F)F)n3)nc(N)c21 (stereo not drawn) [Example 109A, 4-amino-5-(5-(1-fluorocyclopropyl)-1,3,4-oxadiazol-2-yl)-5-methyl-2-(8-(4,4,4-trifluorobutyl)-[1,2,4]triazolo[1,5-a]pyrazin-6-yl)-5H-pyrrolo[2,3-d]pyrimidin-6(7H)-one]
75 | CC1(c2ccc(O)cn2)C(=O)Nc2nc(-c3cn4ncnc4c(CCCC(F)(F)F)n3)nc(N)c21 (stereo not drawn) [Example 111A, 4-amino-5-(5-hydroxypyridin-2-yl)-5-methyl-2-(8-(4,4,4-trifluorobutyl)-[1,2,4]triazolo[1,5-a]pyrazin-6-yl)-5H-pyrrolo[2,3-d]pyrimidin-6(7H)-one]
171 | C[C@@]1(c2ccc(F)cc2)C(=O)Nc2nc(-c3cn4ncnc4c(Cc4cccc(O)c4)n3)nc(N)c21 [Example 113B, (S)-4-amino-5-(4-fluorophenyl)-2-(8-(3-hydroxybenzyl)-[1,2,4]triazolo[1,5-a]pyrazin-6-yl)-5-methyl-5H-pyrrolo[2,3-d]pyrimidin-6(7H)-one]
85 | CCCCc1nc(-c2nc(N)c3c(n2)NC(=O)C3(c2ccccn2)C2CC2)cn2ncnc12 (stereo not drawn) [Example 116A, 4-amino-2-(8-butyl-[1,2,4]triazolo[1,5-a]pyrazin-6-yl)-5-cyclopropyl-5-(pyridin-2-yl)-5H-pyrrolo[2,3-d]pyrimidin-6(7H)-one]
140 | N#Cc1ccc(C2(C3CC3)C(=O)Nc3nc(-c4cn5ncnc5c(CCCC(F)(F)F)n4)nc(N)c32)nc1 (stereo not drawn) [Example 117A, 6-(4-Amino-5-cyclopropyl-6-oxo-2-(8-(4,4,4-trifluorobutyl)-[1,2,4]triazolo[1,5-a]pyrazin-6-yl)-6,7-dihydro-5H-pyrrolo[2,3-d]pyrimidin-5-yl)nicotinonitrile]
